pIC50: −log10 of the molar value. A value given as a limit tells only on which side of the number the result lay.

This assay relates to Endogenous Huntingtin Protein. As to the kind of experiment: Endogenous Huntingtin Protein Assay (ELISA-based MSD electrochemiluminescence). Format: cell-based. To be noted: Table 1. Summed up: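 Huntingtin was captured overnight at 4 °C on plates coated with 1 μg/mL MW1 (polyQ-expanded) or MAB2166 antibody and BSA-blocked. Detection used a rabbit monoclonal and then a SULFO-TAG goat anti-rabbit antibody (0.25 μg/mL, 1 h each, room temperature). Signal was read by electrochemiluminescence.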
Usually pIC50 stands for the IC50 on a negative log10 scale, so that one unit is a factor of ten. Higher therefore signals a small IC50. As for `Cn1cc2cc(-c3ccc4nc(N5CCC(N)CC5)sc4c3)ccc2n1` [Compound 29, 1-[6-(2-methyl-2H-indazol-5-yl)-1,3-benzothiazol-2-yl]piperidin-4-amine], the pIC50 is 5.52 to 6.00.
Consider `Cc1cc(-c2cc3sc(N(C)C4CC5CCCC(C4)N5)nc3cn2)cc2cn(C)nc12` (stereo not drawn) [Compound 263, N-(9-azabicyclo[3.3.1]non-3-yl)-6-(2,7-dimethyl-2H-indazol-5-yl)-N-methyl[1,3]thiazolo[4,5-c]pyridin-2-amine], for which the pIC50 was ≥ 7.00.
Take `Oc1cc(-c2cn[nH]c2)ccc1-c1cc2sc(N3C[C@H]4CCNC[C@H]43)nc2nn1` [Compound 386, 2-{6-[(1S,6R)-3,8-diazabicyclo[4.2.0]octan-8-yl][1,3]thiazolo[4,5-c]pyridazin-3-yl}-5-(1H-pyrazol-4-yl)phenol]: the pIC50 is ≥ 7.00.
`CN(c1nc2nnc(-c3ccc(-c4cn[nH]c4)cc3O)cc2s1)[C@@H]1CCCNC1` [Compound 348, 2-(6-{methyl[(3R)-piperidin-3-yl]amino}[1,3]thiazolo[4,5-c]pyridazin-3-yl)-5-(1H-pyrazol-4-yl)phenol] had a pIC50 of 6.30 to 7.00.
Turning to `Cn1cc2cc(-c3cc4sc(NC5CC6CCC(C5)N6)nc4cn3)cc(C#N)c2n1` (stereo not drawn) [Compound 213, 5-{2-[(3-exo)-8-azabicyclo[3.2.1]oct-3-ylamino][1,3]thiazolo[4,5-c]pyridin-6-yl}-2-methyl-2H-indazole-7-carbonitrile], the pIC50 was ≥ 7.00.
Turning to `Cn1cc2cc(-c3cc(F)c4nc(C5CCNCC5)sc4c3)ccc2n1` [Compound 73, 4-fluoro-6-(2-methyl-2H-indazol-5-yl)-2-(piperidin-4-yl)-1,3-benzothiazole], the pIC50 was ≥ 7.00.
With `Cc1cn2cc(-c3ccc4nc(N(C)C5CC(C)(C)NC(C)(C)C5)sc4c3)cc2c(C)n1` [Compound 55, 6-(1,3-dimethylpyrrolo[1,2-a]pyrazin-7-yl)-N-methyl-N-(2,2,6,6-tetramethylpiperidin-4-yl)-1,3-benzothiazol-2-amine], the pIC50 is ≥ 7.00.
In the case of `Cc1nc2c(C)cc(-c3cc(F)c4nc([C@H]5C[C@@H](C)N[C@@H](C)C5)sc4c3)nc2o1` [Compound 359, 5-{2-[(2R,4r,6S)-2,6-dimethylpiperidin-4-yl]-4-fluoro-1,3-benzothiazol-6-yl}-2,7-dimethyl[1,3]oxazolo[5,4-b]pyridine], the pIC50 is ≥ 7.00.
The result for `Cc1cn2cc(-c3ccc4nc(N(C)C5CC(C)(C)NC(C)(C)C5)sc4c3)ccc2n1` [Compound 63, N-methyl-6-(2-methylimidazo[1,2-a]pyridin-6-yl)-N-(2,2,6,6-tetramethylpiperidin-4-yl)-1,3-benzothiazol-2-amine] reads 6.30 to 7.00; that for `Cc1cn2nc(-c3cnc4nc(N(C)C5CC(C)(C)NC(C)(C)C5)sc4n3)cc(C)c2n1` [Compound 162, 6-(2,8-dimethylimidazo[1,2-b]pyridazin-6-yl)-N-methyl-N-(2,2,6,6-tetramethylpiperidin-4-yl)[1,3]thiazolo[4,5-b]pyrazin-2-amine], ≥ 7.00.
As to `Cc1cn2cc(-c3cc4sc(N(C)C5CCNCC5)nc4cn3)cc(C#N)c2n1` [Compound 198, 2-methyl-6-{2-[methyl(piperidin-4-yl)amino][1,3]thiazolo[4,5-c]pyridin-6-yl}imidazo[1,2-a]pyridine-8-carbonitrile], the pIC50 is ≥ 7.00.
Take `Cc1cn2cc(-c3cnc4nc(OC5CC(C)(C)NC(C)(C)C5)sc4n3)cc(F)c2n1` [Compound 180, 6-(8-fluoro-2-methylimidazo[1,2-a]pyridin-6-yl)-2-[(2,2,6,6-tetramethylpiperidin-4-yl)oxy][1,3]thiazolo[4,5-b]pyrazine]: the pIC50 was 6.30 to 7.00.
The result for `Cc1cn2cc(-c3cc4sc(N(C)[C@@H]5C[C@H]6CC[C@@H](C5)N6C)nc4cn3)cc(C#N)c2n1` [Compound 240, 2-methyl-6-(2-{methyl[(3-exo)-8-methyl-8-azabicyclo[3.2.1]oct-3-yl]amino}[1,3]thiazolo[4,5-c]pyridin-6-yl)imidazo[1,2-a]pyridine-8-carbonitrile] reads 6.30 to 7.00.
The result for `Cc1cn2cc(-c3cc4sc(N(C)C5CCN(C)C(C)C5)nc4cn3)cc(F)c2n1` (stereo not drawn) [Compound 380, N-(1,2-dimethylpiperidin-4-yl)-6-(8-fluoro-2-methylimidazo[1,2-a]pyridin-6-yl)-N-methyl[1,3]thiazolo[4,5-c]pyridin-2-amine] reads 6.30 to 7.00; that for `CN1CCCC2(CCN2c2nc3nnc(-c4ccc(-c5cn[nH]c5)cc4O)cc3s2)C1` (stereo not drawn) [Compound 370, 2-[6-(6-methyl-1,6-diazaspiro[3.5]nonan-1-yl)[1,3]thiazolo[4,5-c]pyridazin-3-yl]-5-(1H-pyrazol-4-yl)phenol], ≥ 7.00; that for `Cc1cn2cc(-c3ccc4nc(N(C)C5CC6CCC(C5)N6)sc4n3)cc(C#N)c2n1` (stereo not drawn) [Compound 276, 6-{2-[(3-exo)-8-azabicyclo[3.2.1]oct-3-yl(methyl)amino][1,3]thiazolo[5,4-b]pyridin-5-yl}-2-methylimidazo[1,2-a]pyridine-8-carbonitrile], ≥ 7.00.
As for `COc1cc(-c2cc(F)c3nc(C4=CCNCC4)sc3c2)nn2cc(C)nc12` [Compound 145, 6-[4-fluoro-2-(1,2,3,6-tetrahydropyridin-4-yl)-1,3-benzothiazol-6-yl]-8-methoxy-2-methylimidazo[1,2-b]pyridazine], the pIC50 was ≥ 7.00.
`CN(C)[C@H]1CC[C@H](N(C)c2nc3nnc(-c4ccc(-c5cn[nH]c5)cc4O)cc3s2)CC1` [Compound 351, 2-(6-{[(1r,4r)-4-(dimethylamino)cyclohexyl](methyl)amino][1,3]thiazolo[4,5-c]pyridazin-3-yl)-5-(1H-pyrazol-4-yl)phenol] showed a pIC50 of 5.52 to 6.00.
The result for `Cc1cc(-c2cc(O)c3nc(C4CCNCC4)sc3c2)cc2cn(C)nc12` [Compound 134, 6-(2,7-dimethyl-2H-indazol-5-yl)-2-(piperidin-4-yl)-1,3-benzothiazol-4-ol] reads 6.30 to 7.00; that for `Cc1cn2nc(-c3cc(F)c4nc(N(C)C5CC6CCC(C5)N6)sc4c3)cc(C(N)=O)c2n1` (stereo not drawn) [Compound 236, 6-{2-[(3-exo)-8-azabicyclo[3.2.1]oct-3-yl(methyl)amino]-4-fluoro-1,3-benzothiazol-6-yl}-2-methylimidazo[1,2-b]pyridazine-8-carboxamide], ≥ 7.00.
The result for `CN(c1nc2cnc(-c3cc(F)c4nn(C)cc4c3)cc2s1)[C@@H]1C[C@H]2CC[C@@H](C1)N2C` [Compound 241, 6-(7-fluoro-2-methyl-2H-indazol-5-yl)-N-methyl-N-[(3-exo)-8-methyl-8-azabicyclo[3.2.1]oct-3-yl][1,3]thiazolo[4,5-c]pyridin-2-amine] reads 6.30 to 7.00; that for `Cn1cc2cc(-c3cc(F)c4nc(C5=CCNCC5)sc4c3)ccc2n1` [Compound 72, 4-fluoro-6-(2-methyl-2H-indazol-5-yl)-2-(1,2,3,6-tetrahydropyridin-4-yl)-1,3-benzothiazole], 6.30 to 7.00; that for `CCc1cc(-c2ccc3nc(N(C)C4CC(C)(C)NC(C)(C)C4)sc3c2)cc2cn(C)nc12` [Compound 54, 6-(7-ethyl-2-methyl-2H-indazol-5-yl)-N-methyl-N-(2,2,6,6-tetramethylpiperidin-4-yl)-1,3-benzothiazol-2-amine], 6.30 to 7.00.
Take `Cc1cn2nc(-c3ccc4nc(C5CCNCC5)sc4c3)ccc2n1` [Compound 97, 2-methyl-6-[2-(piperidin-4-yl)-1,3-benzothiazol-6-yl]imidazo[1,2-b]pyridazine]: the pIC50 is ≥ 7.00.

The values above are taken from patent publication US12139499B2, “Heteroaryl compounds for treating Huntington's disease” (PTC THERAPEUTICS, INC., priority 2018, dated 2024).
